For 23 compounds, IC50 results are on record in patent publication US20220112187A1, “PYRAZOLOPYRIDINE AMINE COMPOUNDS FOR THE TREATMENT OF AUTOIMMUNE DISEASE” (Hoffmann-La Roche Inc., priority 2018, published 2022).

The assay has as its target T1, human TLR8 (Homo sapiens, UniProt Q9NR97).
T1 sequence (Q9NR97 27-1041): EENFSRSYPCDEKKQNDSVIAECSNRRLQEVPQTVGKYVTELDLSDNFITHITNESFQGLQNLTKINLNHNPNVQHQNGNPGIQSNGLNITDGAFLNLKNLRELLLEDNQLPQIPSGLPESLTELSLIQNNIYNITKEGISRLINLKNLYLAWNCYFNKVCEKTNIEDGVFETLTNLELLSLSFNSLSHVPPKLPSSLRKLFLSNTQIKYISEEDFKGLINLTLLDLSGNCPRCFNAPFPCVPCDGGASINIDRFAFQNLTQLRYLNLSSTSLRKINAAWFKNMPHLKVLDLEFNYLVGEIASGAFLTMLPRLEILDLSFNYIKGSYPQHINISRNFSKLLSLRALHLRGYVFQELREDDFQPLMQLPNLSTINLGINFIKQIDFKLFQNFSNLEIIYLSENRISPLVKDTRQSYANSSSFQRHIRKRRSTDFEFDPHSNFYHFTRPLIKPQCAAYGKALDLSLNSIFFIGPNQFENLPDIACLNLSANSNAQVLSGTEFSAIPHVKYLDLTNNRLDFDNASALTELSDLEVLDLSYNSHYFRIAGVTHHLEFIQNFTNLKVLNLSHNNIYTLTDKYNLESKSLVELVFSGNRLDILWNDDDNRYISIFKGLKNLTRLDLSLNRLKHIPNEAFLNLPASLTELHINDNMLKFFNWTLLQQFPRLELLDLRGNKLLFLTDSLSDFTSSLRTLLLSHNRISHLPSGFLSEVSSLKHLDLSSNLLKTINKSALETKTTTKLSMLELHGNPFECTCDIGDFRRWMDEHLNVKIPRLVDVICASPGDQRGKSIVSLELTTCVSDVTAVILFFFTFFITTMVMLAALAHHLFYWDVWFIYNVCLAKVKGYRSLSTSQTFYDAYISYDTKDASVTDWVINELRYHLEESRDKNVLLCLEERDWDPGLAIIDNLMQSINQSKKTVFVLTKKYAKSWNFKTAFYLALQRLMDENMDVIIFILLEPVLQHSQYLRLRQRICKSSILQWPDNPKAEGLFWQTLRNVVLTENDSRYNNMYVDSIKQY
Put plainly: HEK293-Blue-hTLR-8 cells assay (SEAP reporter, R848 stimulation). It is filed as cell-based. To be noted: HEK293-Blue-hTLR8 cells, R848 ligand, 20 hrs incubation. The text has this:
A stable HEK293-Blue-hTLR-8 cell line was purchased from InvivoGen (Cat. #: hkb-htlr8, San Diego, Calif., USA). These cells were originally designed for studying the stimulation of human TLR8 by monitoring the activation of NF-κB. A SEAP (secreted embryonic alkaline phosphatase) reporter gene was placed under the control of the IFN-β minimal promoter fused to five NF-κB and AP-1-binding sites. The SEAP was induced by activating NF-κB and AP-1 via stimulating HEK-Blue hTLR8 cells with TLR8 ligands. Therefore the reporter expression was declined by TLR8 antagonist under the stimulation of a ligand, such as R848, for incubation of 20 hrs. The cell culture supernatant SEAP reporter activity was determined using QUANTI-Blue™ kit (Cat. #: rep-qb1, Invivogen, San Diego, Ca, USA) at a wavelength of 640 nm, a detection medium that turns purple or blue in the presence of alkaline phosphatase.
HEK293-Blue-hTLR8 cells were incubated at a density of 250,000˜450,000 cells/mL in a volume of 170 μL in a 96-well plate in Dulbecco's Modified Eagle's medium (DMEM) containing 4.5 g/L glucose, 50 U/mL penicillin, […], […], 2 mM L-glutamine, 10% (v/v) heat-inactivated fetal bovine serum with addition of 20 μL test compound in a serial dilution in the presence of final DMSO at 1% and 10 μL of 60 uM R848 in above DMEM, perform incubation under 37° C. in a CO2 incubator for 20 hrs. Then 20 μL of the supernatant from each well was incubated with 180 μL Quanti-blue substrate solution at 37° C. for 2 hrs and the absorbance was read at 620˜655 nm using a spectrophotometer. The signalling pathway that TLR8 activation leads to downstream NF-κB activation has been widely accepted, and therefore similar reporter assay was modified for evaluating TLR8 antagonist.

As to `C[C@@H]1CN(c2ccc(C#N)n3nccc23)C[C@H](CN2CC3CCNCC3C2)O1` (stereo partly drawn) [Example 49, 4-[(2S,6R)-2-(1,3,3a,4,5,6,7,7a-octahydropyrrolo[3,4-c]pyridin-2-ylmethyl)-6-methyl-morpholin-4-yl]pyrazolo[1,5-a]pyridine-7-carbonitrile], the IC50 worked out at 150 nM.

As for `C[C@@H]1CN(c2ccc(C#N)n3nccc23)C[C@H](CN2CC3CCC2CN3)O1` (stereo partly drawn) [Example 30, 4-[(2S,6R)-2-(2,5-diazabicyclo[2.2.2]octan-2-ylmethyl)-6-methyl-morpholin-4-yl]pyrazolo[1,5-a]pyridine-7-carbonitrile], the midpoint of inhibition, the IC50, lay at 100 nM.

Compound `C[C@@H]1CN(c2ccc(C#N)n3nccc23)C[C@H](CN2CCC3(CCCCN3)C2)O1` (stereo partly drawn) [Example 42, 4-[(2S,6R)-2-(2,6-diazaspiro[4.5]decan-2-ylmethyl)-6-methyl-morpholin-4-yl]pyrazolo[1,5-a]pyridine-7-carbonitrile] had an IC50 of 65 nM.

In turn, `CC1CNCCN1C[C@H]1CN(c2ccc(C#N)n3nccc23)C[C@@H](C)O1` (single isomer, unassigned) [Example 50A] came in with an IC50 of 64 nM.

`C[C@@H]1CN(c2ccc(C#N)n3nccc23)C[C@H](CN2CCCC3(CCCNC3)C2)O1` (stereo partly drawn) [Example 23, 4-[(2S,6R)-2-(2,8-diazaspiro[5.5]undecan-2-ylmethyl)-6-methyl-morpholin-4-yl]pyrazolo[1,5-a]pyridine-7-carbonitrile] had an IC50 of 41 nM.

On to `CC1CC(N)CCN1C[C@H]1CN(c2ccc(C#N)n3nccc23)C[C@@H](C)O1` (stereo partly drawn) [Example 51, 4-[(2S,6R)-2-[(4-amino-2-methyl-1-piperidyl)methyl]-6-methyl-morpholin-4-yl]pyrazolo[1,5-a]pyridine-7-carbonitrile], for which it took 40 nM to reach half-maximal inhibition (IC50).

As to `C[C@@H]1CN(c2ccc(C#N)n3nccc23)C[C@H](CN2CC3(CCCNC3)C2)O1` [Example 10, 4-[(2S,6R)-2-(2,8-diazaspiro[3.5]nonan-2-ylmethyl)-6-methyl-morpholin-4-yl]pyrazolo[1,5-a]pyridine-7-carbonitrile], the IC50 stood at 130 nM.

`C[C@@H]1CN(c2ccc(C#N)n3nccc23)C[C@H](CN2CCCC3NCCCC32)O1` (stereo partly drawn) [Example 64, 4-[(2S,6R)-2-(3,4,4a,5,6,7,8,8a-octahydro-2H-1,5-naphthyridin-1-ylmethyl)-6-methyl-morpholin-4-yl]pyrazolo[1,5-a]pyridine-7-carbonitrile] registered an IC50 of 120 nM.

Turning to `C[C@@H]1CN(c2ccc(C#N)n3nccc23)C[C@H](CN2CCC(N3CCNCC3)CC2)O1` [Example 39, 4-[(2R,6S)-2-methyl-6-[(4-piperazin-1-yl-1-piperidyl)methyl]morpholin-4-yl]pyrazolo[1,5-a]pyridine-7-carbonitrile], the IC50 came out at 180 nM.

For `C[C@@H]1CN(c2ccc(C#N)n3nccc23)C[C@H](CN2CC(N)C(F)(F)C2)O1` (stereo partly drawn) [Example 35, 4-[(2S,6R)-2-[(4-amino-3,3-difluoro-pyrrolidin-1-yl)methyl]-6-methyl-morpholin-4-yl]pyrazolo[1,5-a]pyridine-7-carbonitrile], half-maximal inhibition (IC50) required 950 nM. Compared with the last compound, the IC50 is about 5.3-fold higher.

For the compound `C[C@@H]1CN(c2ccc(C#N)n3nccc23)C[C@H](CN2CCC(N3CCCC3)CC2)O1` [Example 54, 4-[(2R,6S)-2-methyl-6-[(4-pyrrolidin-1-yl-1-piperidyl)methyl]morpholin-4-yl]pyrazolo[1,5-a]pyridine-7-carbonitrile], the concentration for half-maximal inhibition (IC50) is 42 nM. This IC50 lies about 23-fold lower than the previous one.

On to `C[C@@H]1CN(c2ccc(C#N)n3nccc23)C[C@H](CN2CCC3(CCN3)CC2)O1` [Example 48, 4-[(2S,6R)-2-(1,7-diazaspiro[3.5]nonan-7-ylmethyl)-6-methyl-morpholin-4-yl]pyrazolo[1,5-a]pyridine-7-carbonitrile], for which the IC50 was 110 nM.

The compound `CC1CN(C[C@H]2CN(c3ccc(C#N)n4nccc34)C[C@@H](C)O2)CCN1` (stereo partly drawn) [Example 28, 4-[(2R,6S)-2-methyl-6-[(3-methylpiperazin-1-yl)methyl]morpholin-4-yl]pyrazolo[1,5-a]pyridine-7-carbonitrile] showed an IC50 of 65 nM.

As for `C[C@@H]1CN(c2ccc(C#N)n3nccc23)C[C@H](CN2CCC3(CCNCC3)C2)O1` [Example 18, 4-[(2S,6R)-2-(2,8-diazaspiro[4.5]decan-2-ylmethyl)-6-methyl-morpholin-4-yl]pyrazolo[1,5-a]pyridine-7-carbonitrile], the IC50 came out at 350 nM.

Turning to `C[C@@H]1CN(c2ccc(C#N)n3nccc23)C[C@H](CN2CCC(N)CC2)O1` [Example 17, 4-[(2S,6R)-2-[(4-amino-1-piperidyl)methyl]-6-methyl-morpholin-4-yl]pyrazolo[1,5-a]pyridine-7-carbonitrile], the IC50 turned out to be 58 nM.

In turn, `C[C@@H]1CN(c2ccc(C#N)n3nccc23)C[C@H](CN2C3CCC2CC(N)C3)O1` (stereo partly drawn) [Example 37, 4-[(2S,6R)-2-[(3-amino-8-azabicyclo[3.2.1]octan-8-yl)methyl]-6-methyl-morpholin-4-yl]pyrazolo[1,5-a]pyridine-7-carbonitrile] displayed an IC50 of 45 nM.

On to `C[C@@H]1CN(c2ccc(C#N)n3nccc23)C[C@H](CN2C3CCCC2CC(N)C3)O1` (stereo partly drawn) [Example 65, Endo-4-[(2S,6R)-2-[(3-amino-9-azabicyclo[3.3.1]nonan-9-yl)methyl]-6-methyl-morpholin-4-yl]pyrazolo[1,5-a]pyridine-7-carbonitrile], for which it took 64 nM to reach half-maximal inhibition (IC50).

`C[C@@H]1CN(c2ccc(C#N)n3nccc23)C[C@H](CN2CCN[C@H](c3ccccc3)C2)O1` [Example 38, 4-[(2R,6S)-2-methyl-6-[[(3R)-3-phenylpiperazin-1-yl]methyl]morpholin-4-yl]pyrazolo[1,5-a]pyridine-7-carbonitrile] came in with a half-maximal inhibitory concentration (IC50) of 37 nM.

For `C[C@@H]1CN(c2ccc(C#N)n3nccc23)C[C@H](CN2CCOC3(CCNCC3)C2)O1` [Example 71, 4-[(2R,6S)-2-methyl-6-(1-oxa-4,9-diazaspiro[5.5]undecan-4-ylmethyl)morpholin-4-yl]pyrazolo[1,5-a]pyridine-7-carbonitrile], the IC50 came out at 55 nM.

On to `C[C@@H]1CN(c2ccc(C#N)n3nccc23)C[C@H](CN2CC3CCC(C2)C3N)O1` (stereo partly drawn) [Example 36, 4-[(2S,6R)-2-[(8-amino-3-azabicyclo[3.2.1]octan-3-yl)methyl]-6-methyl-morpholin-4-yl]pyrazolo[1,5-a]pyridine-7-carbonitrile], for which the midpoint of inhibition, the IC50, lay at 90 nM.

Consider `C[C@@H]1CN(c2ccc(C#N)n3nccc23)C[C@H](CN2CCC3(CN(C)CCO3)C2)O1` (stereo partly drawn) [Example 76, 4-[(2R,6S)-2-methyl-6-[(9-methyl-6-oxa-2,9-diazaspiro[4.5]decan-2-yl)methyl]morpholin-4-yl]pyrazolo[1,5-a]pyridine-7-carbonitrile], for which the IC50 came to 340 nM.

Take `C[C@@H]1CN(c2ccc(C#N)n3nccc23)C[C@H](CN2CCC(N3CCCCCC3)CC2)O1` [Example 4, 4-[(2S,6R)-2-[[4-(azepan-1-yl)-1-piperidyl]methyl]-6-methyl-morpholin-4-yl]pyrazolo[1,5-a]pyridine-7-carbonitrile]: half-maximal inhibition (IC50) was put at 26 nM.

In the case of `C[C@@H]1CN(c2ccc(C#N)n3nccc23)C[C@H](CN2CC3(CCNCC3)C2)O1` [Example 24, 4-[(2S,6R)-2-(2,7-diazaspiro[3.5]nonan-2-ylmethyl)-6-methyl-morpholin-4-yl]pyrazolo[1,5-a]pyridine-7-carbonitrile], half-maximal inhibition (IC50) was put at 610 nM.

A word on the IC50: it is the point on the concentration scale where inhibition reaches its midpoint. Lower therefore signals greater potency.
